According to the supplement of paper PMC10307832:

Legend:
Experiment in all cases: relative viability (nuclei count vs DMSO), 5 days (fraction); higher = more cells survive
NCI-H1975 = tested on: NCI-H1975
How it was run: (§1)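 Each reported value is a median over duplicate plates. It expresses relative viability: treated-well nuclei count divided by vehicle-well nuclei count. Lung cancer cell lines in 1536-well plates were dosed by pin tool a day after seeding, alone with one drug or with a fixed anchor-drug dose plus five library-drug doses (not always all listed) in √10 steps, and nuclei were counted after 5 days.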

NCI-H23 = tested on: NCI-H23
How it was run: as §1

UMC-11 = tested on: UMC-11
How it was run: as §1

HOP-62 = tested on: HOP-62
How it was run: as §1

LU99A = tested on: LU99A
How it was run: as §1

NCI-H2405 = tested on: NCI-H2405
How it was run: as §1

NCI-H727 = tested on: NCI-H727
How it was run: as §1

EPLC-272H = tested on: EPLC-272H
How it was run: as §1

NCI-H838 = tested on: NCI-H838
How it was run: as §1

ABC-1 = tested on: ABC-1
How it was run: as §1

HCC-827 = tested on: HCC-827
How it was run: as §1

NCI-H520 = tested on: NCI-H520
How it was run: as §1

NCI-H647 = tested on: NCI-H647
How it was run: as §1

NCI-H596 = tested on: NCI-H596
How it was run: as §1

BEN = tested on: BEN
How it was run: as §1

NCI-H1355 = tested on: NCI-H1355
How it was run: as §1

NCI-H1792 = tested on: NCI-H1792
How it was run: as §1

PC-14 = tested on: PC-14
How it was run: as §1

NCI-H322M = tested on: NCI-H322M
How it was run: as §1

NCI-H3122 = tested on: NCI-H3122
How it was run: as §1

NCI-H1666 = tested on: NCI-H1666
How it was run: as §1

For `O=C(O)CCCCC(CCSCc1ccccc1)SCc1ccccc1` (stereo not given) [CPI-613] + CC(C)C[C@H](NC(=O)[C@H](Cc1ccccc1)NC(=O)c1cnccn1)B(O)O [Bortezomib] (partner 0.002 µM), which relative viability (NCI-H1975; first compound 5 µM) is on record?
The relative viability was 0.445.

And the relative viability (NCI-H1975; first compound 15.81 µM)?
The relative viability was 0.448.

What about the relative viability (NCI-H1975; first compound 50 µM) of the same compound?
The relative viability was 0.394.

And the relative viability (NCI-H1975; first compound 158.11 µM)?
Its relative viability is 0.174.

And the relative viability (NCI-H1975; first compound 500 µM)?
The relative viability was 0.0487.

And the relative viability (NCI-H23; first compound 5 µM)?
The relative viability was 0.958.

And the relative viability (NCI-H23; first compound 15.81 µM)?
The relative viability was 1.1.

What about the relative viability (NCI-H23; first compound 50 µM) of the same compound?
The relative viability was 0.895.

What about the relative viability (NCI-H23; first compound 158.11 µM) of the same compound?
Its relative viability is 0.175.

What about the relative viability (NCI-H23; first compound 500 µM) of the same compound?
The relative viability was 0.0214.

And the relative viability (UMC-11; first compound 5 µM)?
The relative viability was 0.703.

And the relative viability (UMC-11; first compound 15.81 µM)?
Its relative viability is 0.496.

What about the relative viability (UMC-11; first compound 50 µM) of the same compound?
Its relative viability is 0.692.

And the relative viability (UMC-11; first compound 158.11 µM)?
The relative viability was 0.641.

What about the relative viability (UMC-11; first compound 500 µM) of the same compound?
The relative viability was 0.0673.

What about the relative viability (HOP-62; first compound 5 µM) of the same compound?
The relative viability was 0.511.

What about the relative viability (HOP-62; first compound 15.81 µM) of the same compound?
The relative viability was 0.545.

What about the relative viability (HOP-62; first compound 50 µM) of the same compound?
The relative viability was 1.26.

What about the relative viability (HOP-62; first compound 158.11 µM) of the same compound?
Its relative viability is 0.464.

What about the relative viability (HOP-62; first compound 500 µM) of the same compound?
The relative viability was 0.0422.

And the relative viability (LU99A; first compound 5 µM)?
The relative viability was 1.04.

What about the relative viability (LU99A; first compound 15.81 µM) of the same compound?
The relative viability was 1.04.

And the relative viability (LU99A; first compound 50 µM)?
Its relative viability is 0.961.

What about the relative viability (LU99A; first compound 158.11 µM) of the same compound?
The relative viability was 0.815.

What about the relative viability (LU99A; first compound 500 µM) of the same compound?
The relative viability was 0.08.

And the relative viability (NCI-H2405; first compound 5 µM)?
The relative viability was 0.986.

And the relative viability (NCI-H2405; first compound 15.81 µM)?
The relative viability was 0.961.

And the relative viability (NCI-H2405; first compound 50 µM)?
The relative viability was 0.891.

And the relative viability (NCI-H2405; first compound 158.11 µM)?
Its relative viability is 0.913.

What about the relative viability (NCI-H2405; first compound 500 µM) of the same compound?
The relative viability was 0.852.

And the relative viability (NCI-H727; first compound 5 µM)?
Its relative viability is 0.806.

What about the relative viability (NCI-H727; first compound 15.81 µM) of the same compound?
Its relative viability is 0.782.

What about the relative viability (NCI-H727; first compound 50 µM) of the same compound?
The relative viability was 0.792.

What about the relative viability (NCI-H727; first compound 158.11 µM) of the same compound?
The relative viability was 0.665.

And the relative viability (NCI-H727; first compound 500 µM)?
The relative viability was 0.0714.

And the relative viability (EPLC-272H; first compound 5 µM)?
Its relative viability is 0.937.

And the relative viability (EPLC-272H; first compound 15.81 µM)?
Its relative viability is 0.859.

And the relative viability (EPLC-272H; first compound 50 µM)?
Its relative viability is 1.1.

What about the relative viability (EPLC-272H; first compound 158.11 µM) of the same compound?
The relative viability was 0.778.

And the relative viability (EPLC-272H; first compound 500 µM)?
The relative viability was 0.93.

And the relative viability (NCI-H838; first compound 5 µM)?
Its relative viability is 0.867.

What about the relative viability (NCI-H838; first compound 15.81 µM) of the same compound?
Its relative viability is 0.702.

What about the relative viability (NCI-H838; first compound 50 µM) of the same compound?
Its relative viability is 1.02.

And the relative viability (NCI-H838; first compound 158.11 µM)?
The relative viability was 0.425.

What about the relative viability (NCI-H838; first compound 500 µM) of the same compound?
Its relative viability is 0.0658.

What about the relative viability (ABC-1; first compound 5 µM) of the same compound?
Its relative viability is 0.305.

What about the relative viability (ABC-1; first compound 15.81 µM) of the same compound?
The relative viability was 0.298.

What about the relative viability (ABC-1; first compound 50 µM) of the same compound?
The relative viability was 0.302.

And the relative viability (ABC-1; first compound 158.11 µM)?
The relative viability was 0.232.

And the relative viability (ABC-1; first compound 500 µM)?
The relative viability was 0.242.

And the relative viability (HCC-827; first compound 5 µM)?
Its relative viability is 0.923.

And the relative viability (HCC-827; first compound 15.81 µM)?
Its relative viability is 1.02.

And the relative viability (HCC-827; first compound 50 µM)?
The relative viability was 0.926.

And the relative viability (HCC-827; first compound 158.11 µM)?
Its relative viability is 0.916.

And the relative viability (HCC-827; first compound 500 µM)?
Its relative viability is 0.786.

And the relative viability (NCI-H520; first compound 5 µM)?
Its relative viability is 0.756.

What about the relative viability (NCI-H520; first compound 15.81 µM) of the same compound?
The relative viability was 0.421.

And the relative viability (NCI-H520; first compound 50 µM)?
The relative viability was 0.858.

What about the relative viability (NCI-H520; first compound 158.11 µM) of the same compound?
The relative viability was 0.169.

What about the relative viability (NCI-H520; first compound 500 µM) of the same compound?
Its relative viability is 0.0871.

What about the relative viability (NCI-H647; first compound 5 µM) of the same compound?
Its relative viability is 0.861.

What about the relative viability (NCI-H647; first compound 15.81 µM) of the same compound?
The relative viability was 0.8.

And the relative viability (NCI-H647; first compound 50 µM)?
Its relative viability is 0.962.

What about the relative viability (NCI-H647; first compound 158.11 µM) of the same compound?
The relative viability was 0.0678.

And the relative viability (NCI-H647; first compound 500 µM)?
The relative viability was 0.0092.

What about the relative viability (NCI-H596; first compound 5 µM) of the same compound?
Its relative viability is 0.972.

What about the relative viability (NCI-H596; first compound 15.81 µM) of the same compound?
The relative viability was 0.934.

And the relative viability (NCI-H596; first compound 50 µM)?
The relative viability was 1.

What about the relative viability (NCI-H596; first compound 158.11 µM) of the same compound?
Its relative viability is 0.779.

What about the relative viability (NCI-H596; first compound 500 µM) of the same compound?
The relative viability was 0.208.

And the relative viability (BEN; first compound 5 µM)?
Its relative viability is 0.819.

And the relative viability (BEN; first compound 15.81 µM)?
Its relative viability is 0.539.

And the relative viability (BEN; first compound 50 µM)?
Its relative viability is 0.633.

What about the relative viability (BEN; first compound 158.11 µM) of the same compound?
Its relative viability is 0.708.

And the relative viability (BEN; first compound 500 µM)?
The relative viability was 0.658.

And the relative viability (NCI-H1355; first compound 5 µM)?
Its relative viability is 1.2.

What about the relative viability (NCI-H1355; first compound 15.81 µM) of the same compound?
The relative viability was 1.22.

And the relative viability (NCI-H1355; first compound 50 µM)?
Its relative viability is 1.23.

And the relative viability (NCI-H1355; first compound 158.11 µM)?
Its relative viability is 0.646.

What about the relative viability (NCI-H1355; first compound 500 µM) of the same compound?
The relative viability was 0.611.

What about the relative viability (NCI-H1792; first compound 5 µM) of the same compound?
Its relative viability is 0.889.

And the relative viability (NCI-H1792; first compound 15.81 µM)?
The relative viability was 0.886.

And the relative viability (NCI-H1792; first compound 50 µM)?
Its relative viability is 0.996.

And the relative viability (NCI-H1792; first compound 158.11 µM)?
The relative viability was 0.836.

What about the relative viability (NCI-H1792; first compound 500 µM) of the same compound?
The relative viability was 0.893.

What about the relative viability (PC-14; first compound 5 µM) of the same compound?
Its relative viability is 0.989.

And the relative viability (PC-14; first compound 15.81 µM)?
The relative viability was 0.855.

And the relative viability (PC-14; first compound 50 µM)?
The relative viability was 0.839.

What about the relative viability (PC-14; first compound 158.11 µM) of the same compound?
Its relative viability is 0.893.

What about the relative viability (PC-14; first compound 500 µM) of the same compound?
The relative viability was 0.339.

And the relative viability (NCI-H322M; first compound 5 µM)?
Its relative viability is 1.19.

And the relative viability (NCI-H322M; first compound 15.81 µM)?
Its relative viability is 1.2.

What about the relative viability (NCI-H322M; first compound 50 µM) of the same compound?
The relative viability was 1.27.

And the relative viability (NCI-H322M; first compound 158.11 µM)?
The relative viability was 1.31.

And the relative viability (NCI-H322M; first compound 500 µM)?
Its relative viability is 0.908.

What about the relative viability (NCI-H3122; first compound 5 µM) of the same compound?
Its relative viability is 0.973.

What about the relative viability (NCI-H3122; first compound 15.81 µM) of the same compound?
The relative viability was 1.04.

And the relative viability (NCI-H3122; first compound 50 µM)?
The relative viability was 1.01.

What about the relative viability (NCI-H3122; first compound 158.11 µM) of the same compound?
Its relative viability is 0.939.

And the relative viability (NCI-H3122; first compound 500 µM)?
The relative viability was 0.281.

What about the relative viability (NCI-H1666; first compound 5 µM) of the same compound?
Its relative viability is 0.883.

And the relative viability (NCI-H1666; first compound 15.81 µM)?
The relative viability was 0.603.

And the relative viability (NCI-H1666; first compound 50 µM)?
The relative viability was 0.757.

What about the relative viability (NCI-H1666; first compound 158.11 µM) of the same compound?
Its relative viability is 0.175.

And the relative viability (NCI-H1666; first compound 500 µM)?
The relative viability was 0.0891.
